# Key:
# Test in all cases: Test E preemergence
# Format in all cases: in vivo
# Settings in all cases: scale 0 to 100
# [1] = test system: yellow nutsedge (Cyperus esculentus)
# Excerpt: (§1) Seeds of plant species selected from corn (Zea mays), soybean (Glycine max), velvetleaf (Abutilon theophrasti), cocklebur (common cocklebur, Xanthium strumarium), lambsquarters (Chenopodium album), wild poinsettia (Euphorbia heterophylla), palmer pigweed (Amaranthus palmeri), waterhemp (common waterhemp, Amaranthus rudis), surinam grass (Brachiaria decumbens), large (Lg) crabgrass (Digitaria sanguinalis), Brazilian crabgrass (Digitaria horizontalis), fall panicum (Panicum dichotomiflorum), giant foxtail (Setaria faberii), green foxtail (Setaria viridis), goosegrass (Eleusine indica), johnsongrass (Sorghum halepense), ragweed (common ragweed, Ambrosia elatior), barnyardgrass (Echinochloa crus-galli), sandbur (southern sandbur, Cenchrus echinatus), arrowleaf sida (Sida rhombifolia), Italian ryegrass (Lolium multiflorum), dayflower (Virginia (VA) dayflower, Commelina virginica), field bindweed (Convolvulus arvensis), morningglory (Ipomoea coccinea), nightshade (eastern black nightshade, Solanum ptycanthum), kochia (Kochia scoparia), yellow nutsedge (Cyperus esculentus), horseweed (Conyza canadensis), and hairy beggarticks (Bidens pilosa), were planted into a silt loam soil and treated preemergence with test chemicals formulated in a non-phytotoxic solvent mixture which included a surfactant.
# (§2) At the same time, plants from these crop and weed species and also waterhemp_RES1, (ALS & Triazine resistant common waterhemp, Amaranthus rudis), and waterhemp_RES2, (ALS & HPPD resistant common waterhemp, Amaranthus rudis) were planted in pots containing Redi-Earth® planting medium (Scotts Company, 14111 Scottslawn Road, Marysville, Ohio 43041) comprising spaghnum peat moss, vermiculite, wetting agent and starter nutrients were treated with postemergence applications of test chemicals formulated in the same manner. Plants ranged in height from 2 to 18 cm for postemergence treatments (1- to 4-leaf stage). Treated plants and controls were maintained in a greenhouse for 14 to 21 days, after which time all species were compared to controls and visually evaluated. Plant response ratings, summarized in Table E, are based on a scale of 0 to 100 where 0 is no effect and 100 is complete control. A dash (-) response means no test result.
# [2] = test system: dayflower (Virginia (VA) dayflower, Commelina virginica)
# Excerpt: as §1, §2
# [3] = test system: barnyardgrass (Echinochloa crus-galli)
# Excerpt: as §1, §2
# [4] = test system: waterhemp (common waterhemp, Amaranthus rudis)
# Excerpt: as §1, §2
# [5] = test system: Surinam grass (Brachiaria decumbens)
# Excerpt: as §1, §2
# [6] = test system: sandbur (southern sandbur, Cenchrus echinatus)
# Excerpt: as §1, §2
# [7] = test system: lambsquarters (Chenopodium album)
# Excerpt: as §1, §2
# [8] = test system: goosegrass (Eleusine indica)
# Excerpt: as §1, §2
# [9] = test system: hairy beggarticks (Bidens pilosa)
# Excerpt: as §1, §2
# [10] = test system: large (Lg) crabgrass (Digitaria sanguinalis)
# Excerpt: as §1, §2
# [11] = test system: corn (Zea mays)
# Excerpt: as §1, §2
# [12] = test system: nightshade (eastern black nightshade, Solanum ptycanthum)
# Excerpt: as §1, §2
# [13] = test system: soybean (Glycine max)
# Excerpt: as §1, §2
# [14] = test system: giant foxtail (Setaria faberii)
# Excerpt: as §1, §2
# [15] = test system: fall panicum (Panicum dichotomiflorum)
# Excerpt: as §1, §2
# [16] = test system: arrowleaf sida (Sida rhombifolia)
# Excerpt: as §1, §2
# [17] = test system: green foxtail (Setaria viridis)
# Excerpt: as §1, §2
# [18] = test system: ragweed (common ragweed, Ambrosia elatior)
# Excerpt: as §1, §2
# [19] = test system: morningglory (Ipomoea coccinea)
# Excerpt: as §1, §2
# [20] = test system: Italian ryegrass (Lolium multiflorum)
# Excerpt: as §1, §2
# [21] = test system: palmer pigweed (Amaranthus palmeri)
# Excerpt: as §1, §2
structure (smiles),measurement,setting,value
"Clc1cnc(Oc2cccc(Br)c2Oc2ncc(Cl)cn2)nc1 [Compound 19, 2,2′-[[3-bromo-1,2-phenylene]bis(oxy)]bis[5-chloropyrimidine]]","Plant response rating, Nutsedge, Yellow",[1]; 16 g ai/ha,0
same,"Plant response rating, Nutsedge, Yellow",[1]; 31 g ai/ha,0
same,"Plant response rating, Nutsedge, Yellow",[1]; 62 g ai/ha,0
same,"Plant response rating, Nutsedge, Yellow",[1]; 125 g ai/ha,20
same,"Plant response rating, Dayflower, VA",[2]; 16 g ai/ha,0
same,"Plant response rating, Dayflower, VA",[2]; 31 g ai/ha,0
same,"Plant response rating, Dayflower, VA",[2]; 62 g ai/ha,5
same,"Plant response rating, Dayflower, VA",[2]; 125 g ai/ha,10
same,"Plant response rating, Barnyardgrass",[3]; 16 g ai/ha,0
same,"Plant response rating, Barnyardgrass",[3]; 31 g ai/ha,0
same,"Plant response rating, Barnyardgrass",[3]; 62 g ai/ha,20
same,"Plant response rating, Barnyardgrass",[3]; 125 g ai/ha,70
same,"Plant response rating, Waterhemp",[4]; 16 g ai/ha,65
same,"Plant response rating, Waterhemp",[4]; 31 g ai/ha,65
same,"Plant response rating, Waterhemp",[4]; 62 g ai/ha,100
same,"Plant response rating, Waterhemp",[4]; 125 g ai/ha,100
same,"Plant response rating, Surinam Grass",[5]; 16 g ai/ha,0
same,"Plant response rating, Surinam Grass",[5]; 31 g ai/ha,0
same,"Plant response rating, Surinam Grass",[5]; 62 g ai/ha,10
same,"Plant response rating, Surinam Grass",[5]; 125 g ai/ha,10
same,"Plant response rating, Sandbur",[6]; 16 g ai/ha,0
same,"Plant response rating, Sandbur",[6]; 31 g ai/ha,0
same,"Plant response rating, Sandbur",[6]; 62 g ai/ha,0
same,"Plant response rating, Sandbur",[6]; 125 g ai/ha,20
same,"Plant response rating, Lambsquarters",[7]; 16 g ai/ha,60
same,"Plant response rating, Lambsquarters",[7]; 31 g ai/ha,100
same,"Plant response rating, Lambsquarters",[7]; 62 g ai/ha,100
same,"Plant response rating, Lambsquarters",[7]; 125 g ai/ha,100
same,"Plant response rating, Goosegrass",[8]; 16 g ai/ha,5
same,"Plant response rating, Goosegrass",[8]; 31 g ai/ha,75
same,"Plant response rating, Goosegrass",[8]; 62 g ai/ha,90
same,"Plant response rating, Goosegrass",[8]; 125 g ai/ha,98
same,"Plant response rating, Beggarticks",[9]; 16 g ai/ha,0
same,"Plant response rating, Beggarticks",[9]; 31 g ai/ha,0
same,"Plant response rating, Beggarticks",[9]; 62 g ai/ha,0
same,"Plant response rating, Beggarticks",[9]; 125 g ai/ha,0
same,"Plant response rating, Crabgrass, Large",[10]; 16 g ai/ha,20
same,"Plant response rating, Crabgrass, Large",[10]; 31 g ai/ha,80
same,"Plant response rating, Crabgrass, Large",[10]; 62 g ai/ha,100
same,"Plant response rating, Crabgrass, Large",[10]; 125 g ai/ha,100
same,"Plant response rating, Corn",[11]; 16 g ai/ha,0
same,"Plant response rating, Corn",[11]; 31 g ai/ha,0
same,"Plant response rating, Corn",[11]; 62 g ai/ha,20
same,"Plant response rating, Corn",[11]; 125 g ai/ha,50
same,"Plant response rating, Nightshade",[12]; 16 g ai/ha,0
same,"Plant response rating, Nightshade",[12]; 31 g ai/ha,0
same,"Plant response rating, Nightshade",[12]; 62 g ai/ha,65
same,"Plant response rating, Nightshade",[12]; 125 g ai/ha,98
same,"Plant response rating, Soybean",[13]; 16 g ai/ha,0
same,"Plant response rating, Soybean",[13]; 31 g ai/ha,0
same,"Plant response rating, Soybean",[13]; 62 g ai/ha,0
same,"Plant response rating, Soybean",[13]; 125 g ai/ha,50
same,"Plant response rating, Foxtail, Giant",[14]; 16 g ai/ha,0
same,"Plant response rating, Foxtail, Giant",[14]; 31 g ai/ha,95
same,"Plant response rating, Foxtail, Giant",[14]; 62 g ai/ha,100
same,"Plant response rating, Foxtail, Giant",[14]; 125 g ai/ha,100
same,"Plant response rating, Panicum, Fall",[15]; 16 g ai/ha,100
same,"Plant response rating, Panicum, Fall",[15]; 31 g ai/ha,85
same,"Plant response rating, Panicum, Fall",[15]; 62 g ai/ha,98
same,"Plant response rating, Panicum, Fall",[15]; 125 g ai/ha,100
same,"Plant response rating, Arrowleaf Sida",[16]; 16 g ai/ha,65
same,"Plant response rating, Arrowleaf Sida",[16]; 31 g ai/ha,40
same,"Plant response rating, Arrowleaf Sida",[16]; 62 g ai/ha,100
same,"Plant response rating, Arrowleaf Sida",[16]; 125 g ai/ha,100
same,"Plant response rating, Foxtail, Green",[17]; 16 g ai/ha,0
same,"Plant response rating, Foxtail, Green",[17]; 31 g ai/ha,60
same,"Plant response rating, Foxtail, Green",[17]; 62 g ai/ha,98
same,"Plant response rating, Foxtail, Green",[17]; 125 g ai/ha,100
same,"Plant response rating, Ragweed",[18]; 16 g ai/ha,0
same,"Plant response rating, Ragweed",[18]; 31 g ai/ha,0
same,"Plant response rating, Ragweed",[18]; 62 g ai/ha,10
same,"Plant response rating, Ragweed",[18]; 125 g ai/ha,50
same,"Plant response rating, Morningglory",[19]; 16 g ai/ha,0
same,"Plant response rating, Morningglory",[19]; 31 g ai/ha,0
same,"Plant response rating, Morningglory",[19]; 62 g ai/ha,5
same,"Plant response rating, Morningglory",[19]; 125 g ai/ha,65
same,"Plant response rating, Ryegrass, Italian",[20]; 16 g ai/ha,0
same,"Plant response rating, Ryegrass, Italian",[20]; 31 g ai/ha,0
same,"Plant response rating, Ryegrass, Italian",[20]; 62 g ai/ha,65
same,"Plant response rating, Ryegrass, Italian",[20]; 125 g ai/ha,70
same,"Plant response rating, Pigweed, Palmer",[21]; 16 g ai/ha,0
same,"Plant response rating, Pigweed, Palmer",[21]; 31 g ai/ha,70
same,"Plant response rating, Pigweed, Palmer",[21]; 62 g ai/ha,100
same,"Plant response rating, Pigweed, Palmer",[21]; 125 g ai/ha,100
